Laboratory results taken from patent US9746463B2 (THE TRUSTEES OF COLUMBIA UNIVERSITY IN THE CITY OF NEW YORK, priority 2006, dated 2017).
Ends that are not written are not given here.

Assays:
[1] = test system: Insulin and Cyclin D1 expression in WT islets; assay: Insulin and Cyclin D1 expression in islets cultured with uncarboxylated osteocalcin; assay type: cell-based, mouse; conditions: 0.3 ng/ml (FIG. 7L)
Method: FIG. 7A-O. Esp−/− Mice Are a Model of Increased Osteocalcin Bioactivity. (FIGS. 7A-G) Comparison between 6-week-old WT, Esp−/, Ocn+/−, and Esp−/−; Ocn+/− mice. (FIG. 7A) Blood glucose levels. (FIG. 7B) Serum insulin levels. (FIG. 7C) Serum adiponectin levels. (FIG. 7D) GTT. (FIG. 7E) ITT. (FIG. 7F) GSIS test. (FIG. 7G) Quantification of the number of Ki67-immunoreactive cells in pancreatic islets. […] (FIG. 7K) Expression of Adiponectin in WT adipocytes cultured in presence of vehicle or of 1 ng/ml of commercially available carboxylated osteocalcin (Immunotopics) or bacterially produced uncarboxylated osteocalcin. (FIG. 7L) Expression of Insulin and Cyclin D1 in WT islets cultured in presence of 0.3 ng/ml of bacterially produced uncarboxylated osteocalcin or vehicle. (FIG. 7M) Metabolic parameters and total serum osteocalcin levels in control and obese patients. (FIG. 7N-O) Quantification of carboxylated osteocalcin (HA-bound osteocalcin) in control and obese patients. In (FIGS. 7A)-(C) and (FIGS. G)-(L): *p<0.05 versus WT (Student's t test); in (FIG. D)-(F), °p<0.05 versus WT and *p % 0.001 versus WT (ANOVA followed by post hoc analysis).
Mouse islets and adipocytes isolation. Islets were isolated using a Histopaque gradient (1077, Sigma). […]

[2] = Osteocalcin subcutaneous infusion in GTG-induced obesity; assay type: in vivo, mouse
Method: FIG. 14. […] Wt mice were injected with gold thioglucose (GTG) or vehicle to induce hyperphagia and obesity. Two weeks later they were implanted with subcutaneous osmotic pumps infusing […] of recombinant osteocalcin or PBS for 28 days before. Body weight gain was recorded thereafter at indicated days.
The effect of uncarboxylated osteocalcin on GTG-induced obesity was investigated (FIG. 14). Wild type mice were injected with gold thioglucose (GTG) to induce hyperphagia and obesity or vehicle. Two weeks later they were implanted with subcutaneous osmotic pumps infusing 1 ng/hr of recombinant uncarboxylated osteocalcin or PBS for 28 days. […] At 28 days, body weight was reduced by about 15% with uncarboxylated osteocalcin treatment.

[3] = Osteocalcin subcutaneous infusion in wt mice: insulin sensitivity after insulin injection; assay type: in vivo, mouse; conditions: wild type mice, 0.3 or 3 ng/hour subcutaneously for 18 days, then insulin injection, 0-120 minutes, vs PBS
Method: FIG. 12. […] Wt mice were infused subcutaneously with indicated doses of recombinant osteocalcin or PBS for 18 days before receiving a single injection of insulin. Blood glucose was measured thereafter at indicated times.
Metabolic studies. For glucose tolerance test (GTT), glucose (2 g/kg body weight (BW)) was injected intraperitoneally (IP) after an overnight fast and blood glucose was monitored using blood glucose strips and the Accu-Check glucometer (Roche) at indicated times. For glucose stimulated insulin secretion test (GSIS), glucose (3 g/kg BW) was injected IP after an overnight fast; sera were collected from tails and insulin measured as described (Mauvais-Jarvis et al., 2000). For insulin tolerance test (ITT), mice were fasted for six hours, injected IP with insulin (0.2 U/kg BW) and blood glucose levels were measured at indicated times as described (Mauvais-Jarvis et al., 2002). ITT data are presented as percentage of initial blood glucose concentration. […] Streptozotocin ([…] single injection, Sigma) was injected IP and blood glucose measured as described above every 2 days thereafter. […] Food intake was measured using metabolic cages as the daily change of food weight. Energy expenditure was measured using metabolic cages connected to a calorimeter (Columbus Instrument). Heat values (Kcal/Hr) were recorded over 2 days and reported to each mouse BW. […]

## uncarboxylated osteocalcin: Recombinant mouse osteocalcin bacterially produced as GST fusion, cleaved with thrombin; completely undercarboxylated at all three sites (YLGASVPSPDPLEPTREQCELNPACDELSDQYGLKTAYKRIYGITI; not fully specified; ends and bridges not checked; UniProt P86546 50-95, looked up)
[1]
  expression of Cyclin D1, marker of beta-cell proliferation: induced
  insulin expression: induced insulin expression
[2]; GTG-injected wild type mice, 1 ng/hr by osmotic pump for 28 days, from 7 days on, vs PBS
  body weight gain: significantly reduced
[2]; GTG-injected wild type mice, 1 ng/hr, at 28 days
  reduction of body weight: about 15%
[2]; wt mice, infusion for 28 days (figure legend)
  GTG-induced obesity: prevents GTG-induced obesity
[3]
  insulin sensitivity: increased
[3]; listed as recombinant osteocalcin
  insulin sensitivity: increases insulin sensitivity
